# In patent US11325889B2, “Substituted 3-((3-aminophenyl)amino)piperidine-2,6-dione compounds, compositions thereof, and methods of treatment therewith” (Celgene Corporation, priority 2018, dated 2022):
# Where two headings read alike, the source gives them in different places.
# Biological target: T1, AR protein in VCaP cells (Homo sapiens, UniProt P10275)
# T1 construct: endogenous in cells; host or cells: VCaP cells
# T1 sequence (P10275 1-920): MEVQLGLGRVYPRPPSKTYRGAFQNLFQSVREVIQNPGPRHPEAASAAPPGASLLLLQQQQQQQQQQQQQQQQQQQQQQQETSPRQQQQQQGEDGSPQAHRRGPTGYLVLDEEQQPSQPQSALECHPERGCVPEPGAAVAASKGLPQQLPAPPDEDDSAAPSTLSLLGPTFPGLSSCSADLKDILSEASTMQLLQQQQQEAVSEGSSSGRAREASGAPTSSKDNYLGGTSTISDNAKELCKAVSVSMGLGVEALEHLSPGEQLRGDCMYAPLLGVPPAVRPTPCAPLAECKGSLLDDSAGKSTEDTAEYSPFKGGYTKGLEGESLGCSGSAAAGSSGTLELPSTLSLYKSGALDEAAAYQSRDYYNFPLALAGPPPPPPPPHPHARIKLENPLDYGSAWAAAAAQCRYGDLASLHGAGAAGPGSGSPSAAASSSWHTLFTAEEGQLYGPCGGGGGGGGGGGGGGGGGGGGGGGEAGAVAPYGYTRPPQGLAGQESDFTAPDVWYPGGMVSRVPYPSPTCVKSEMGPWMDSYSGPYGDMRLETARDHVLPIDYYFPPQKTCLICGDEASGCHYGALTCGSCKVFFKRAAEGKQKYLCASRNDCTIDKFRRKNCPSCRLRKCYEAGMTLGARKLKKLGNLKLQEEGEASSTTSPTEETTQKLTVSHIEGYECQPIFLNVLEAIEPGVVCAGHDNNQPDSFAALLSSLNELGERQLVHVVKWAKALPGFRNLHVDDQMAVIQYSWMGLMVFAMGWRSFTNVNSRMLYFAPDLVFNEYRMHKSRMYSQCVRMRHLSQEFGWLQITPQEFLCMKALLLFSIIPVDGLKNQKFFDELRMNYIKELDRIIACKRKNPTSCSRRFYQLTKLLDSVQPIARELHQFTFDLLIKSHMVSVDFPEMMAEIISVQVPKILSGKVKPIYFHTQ
# Assay: VCAP AR Degradation Assay (AR ELISA, 24 h)
# Type: cell-based
# Conditions: for Y (lowest measured AR level normalized to DMSO control): AR degradation efficiency; for DC50: concentration of compound when AR level = 50% of DMSO control
# Method in brief: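 VCaP cells in DMEM with 8% FBS exposed for 24 h at 37° C to a 10-point, 1:3 series (final top concentration […]; 0.1% DMSO control). Lysate AR measured by sandwich ELISA and normalized to DMSO as percent of control. DC50, EC50 and lowest AR level (Y) from four-parameter logistic fit.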
DC50 (read-out: DC50) [nM],Structure (SMILES),Y (lowest measured AR level normalized to DMSO control),DC50 [nM]
100 to 500,"CCc1cc(N2C(=S)N(c3cnc(C#N)c(C(F)(F)F)c3)C(=O)C23CCC3)ccc1OCC[C@H]1CCN(CC(=O)Nc2cccc(NC3CCC(=O)NC3=O)c2)C(C)(C)C1 (stereo partly drawn) [Cmpd 55, 2-((S)-4-(2-(4-(7-(6-cyano-5-(trifluoromethyl)pyridin-3-yl)-8-oxo-6-thioxo-5,7-diazaspiro[3.4]octan-5-yl)-2-ethylphenoxy)ethyl)-2,2-dimethylpiperidin-1-yl)-N-(3-(2,6-dioxopiperidin-3-ylamino)phenyl)acetamide]",* (0<Y<=25%),–
100 to 500,"CCc1cc(N2C(=S)N(c3cnc(C#N)c(C(F)(F)F)c3)C(=O)C23CCC3)ccc1OCCC1CCN(CC(=O)Nc2cc(NC3CCC(=O)NC3=O)ccc2F)CC1 (stereo not shown) [Cmpd 56, 2-(4-(2-(4-(7-(6-cyano-5-(trifluoromethyl)pyridin-3-yl)-8-oxo-6-thioxo-5,7-diazaspiro[3.4]octan-5-yl)-2-ethylphenoxy)ethyl)piperidin-1-yl)-N-(5-(2,6-dioxopiperidin-3-ylamino)-2-fluorophenyl)acetamide]",* (0<Y<=25%),–
< 100,"CC1(C)C(=O)N(c2cnc(C#N)c(C(F)(F)F)c2)C(=S)N1c1ccc(OCCC2CCN(CC(=O)Nc3cccc(NC4CCC(=O)NC4=O)c3)CC2)c(CCF)c1 (stereo not shown) [Cmpd 58, 2-(4-(2-(4-(3-(6-cyano-5-(trifluoromethyl)pyridin-3-yl)-5,5-dimethyl-4-pxo-2-thioxoimidazolidin-1-yl)-2-(2-fluoroethyl)phenoxy)ethyl)piperidin-1-yl)-N-(3-(2,6-dioxopiperidin-3-ylamino)phenyl)acetamide]",* (0<Y<=25%),–
< 100,"CCc1cc(N2C(=S)N(c3cnc(C#N)c(C(F)(F)F)c3)C(=O)C2(C)C)ccc1OCCC1(C)CCN(CC(=O)Nc2cccc(NC3CCC(=O)NC3=O)c2)CC1 (stereo not shown) [Cmpd 61, 2-(4-(2-(4-(3-(6-cyano-5-(trifluoromethyl)pyridin-3-yl)-5,5-dimethyl-4-oxo-2-thioxoimidazolidin-1-yl)-2-ethylphenoxy)ethyl)-4-methylpiperidin-1-yl)-N-(3-(2,6-dioxopiperidin-3-ylamino)phenyl)acetamide]",* (0<Y<=25%),–
–,"CCc1cc(N2C(=S)N(c3cnc(C#N)c(C(F)(F)F)c3)C(=O)C2(C)C)ccc1OCC[C@@H]1C[C@H]2CC[C@@H](C1)N2CC(=O)Nc1cc(Cl)cc(NC2CCC(=O)NC2=O)c1 (stereo partly drawn) [Cmpd 62, N-(3-chloro-5-(2,6-dioxopiperidin-3-ylamino)phenyl)-2-((1R,3s,5S)-3-(2-(4-(3-(6-cyano-5-(trifluoromethyl)pyridin-3-yl)-5,5-dimethyl-4-oxo-2-thioxoimidazolidin-1-yl)-2-ethylphenoxy)ethyl)-8-azabicyclo[3.2.1]octan-8-yl)acetamide]",* (0<Y<=25%),< 100
–,"CCc1cc(N2C(=S)N(c3cnc(C#N)c(C(F)(F)F)c3)C(=O)C2(C)C)ccc1OCC[C@H]1C[C@H]2CC[C@@H](C1)N2CC(=O)Nc1cc(Cl)cc(NC2CCC(=O)NC2=O)c1 (stereo partly drawn) [Cmpd 63, N-(3-chloro-5-(2,6-dioxopiperidin-3-ylamino)phenyl)-2-((1R,3r,5S)-3-(2-(4-(3-(6-cyano-5-(trifluoromethyl)pyridin-3-yl)-5,5-dimethyl-4-oxo-2-thioxoimidazolidin-1-yl)-2-ethylphenoxy)ethyl)-8-azabicyclo[3.2.1]octan-8-yl)acetamide]",** (25%<Y<=35%),< 100
100 to 500,"CCc1cc(N2C(=S)N(c3cnc(C#N)c(C(F)(F)F)c3)C(=O)C2(C)C)ccc1OCCC1(C)CCN(CC(=O)Nc2cc(Cl)cc(NC3CCC(=O)NC3=O)c2)CC1 (stereo not shown) [Cmpd 64, N-(3-chloro-5-(2,6-dioxopiperidin-3-ylamino)phenyl)-2-(4-(2-(4-(3-(6-cyano-5-(trifluoromethyl)pyridin-3-yl)-5,5-dimethyl-4-oxo-2-thioxoimidazolidin-1-yl)-2-ethylphenoxy)ethyl)-4-methylpiperidin-1-yl)acetamide]",* (0<Y<=25%),–
–,"CCc1cc(N2C(=S)N(c3cnc(C#N)c(C(F)(F)F)c3)C(=O)C2(C)C)ccc1OCC[C@H]1C[C@H]2CC[C@@H](C1)N2CC(=O)Nc1cccc(NC2CCC(=O)NC2=O)c1 (stereo partly drawn) [Cmpd 65, 2-((1R,3r,5S)-3-(2-(4-(3-(6-cyano-5-(trifluoromethyl)pyridin-3-yl)-5,5-dimethyl-4-oxo-2-thioxoimidazolidin-1-yl)-2-ethylphenoxy)ethyl)-8-azabicyclo[3.2.1]octan-8-yl)-N-(3-(2,6-dioxopiperidin-3-ylamino)phenyl)acetamide]",* (0<Y<=25%),< 100
–,"CCc1cc(N2C(=S)N(c3cnc(C#N)c(C(F)(F)F)c3)C(=O)C2(C)C)ccc1OCC[C@@H]1C[C@H]2CC[C@@H](C1)N2CC(=O)Nc1cccc(NC2CCC(=O)NC2=O)c1 (stereo partly drawn) [Cmpd 66, 2-((1R,3s,5S)-3-(2-(4-(3-(6-cyano-5-(trifluoromethyl)pyridin-3-yl)-5,5-dimethyl-4-oxo-2-thioxoimidazolidin-1-yl)-2-ethylphenoxy)ethyl)-8-azabicyclo[3.2.1]octan-8-yl)-N-(3-(2,6-dioxopiperidin-3-ylamino)phenyl)acetamide]",* (0<Y<=25%),< 100
–,"CCc1cc(N2C(=S)N(c3cnc(C#N)c(C(F)(F)F)c3)C(=O)C23CCC3)ccc1OCC[C@@H]1C[C@H]2CC[C@@H](C1)N2CC(=O)Nc1cccc(NC2CCC(=O)NC2=O)c1 (stereo partly drawn) [Cmpd 68, 2-((1R,3s,5S)-3-(2-(4-(7-(6-cyano-5-(trifluoromethyl)pyridin-3-yl)-8-oxo-6-thioxo-5,7-diazaspiro[3.4]octan-5-yl)-2-ethylphenoxy)ethyl)-8-azabicyclo[3.2.1]octan-8-yl)-N-(3-(2,6-dioxopiperidin-3-ylamino)phenyl)acetamide]",* (0<Y<=25%),< 100
–,"CCc1cc(N2C(=S)N(c3cnc(C#N)c(C(F)(F)F)c3)C(=O)C23CCC3)ccc1OCCC1C[C@H]2CC[C@@H](C1)N2CC(=O)Nc1cc(Cl)cc(NC2CCC(=O)NC2=O)c1 (stereo partly drawn) [Cmpd 69, N-(3-chloro-5-(2,6-dioxopiperidin-3-ylamino)phenyl)-2-((1R,5S)-3-(2-(4-(7-(6-cyano-5-(trifluoromethyl)pyridin-3-yl)-8-oxo-6-thioxo-5,7-diazaspiro[3.4]octan-5-yl)-2-ethylphenoxy)ethyl)-8-azabicyclo[3.2.1]octan-8-yl)acetamide]",** (25%<Y<=35%),100 to 500

Structure (SMILES),DC50 (read-out: DC50) [nM],Y (lowest measured AR level normalized to DMSO control),DC50 [nM]
"CCc1cc(N2C(=S)N(c3ccc(C#N)c(C(F)(F)F)c3)C(=O)C23CCC3)ccc1OCCC1CCN(CC(=O)Nc2cc(NC3CCC(=O)NC3=O)ccc2F)CC1 (stereo not shown) [Cmpd 57, 2-(4-(2-(4-(7-(4-cyano-3-(trifluoromethyl)phenyl)-8-oxo-6-thioxo-5,7-diazaspiro[3.4]octan-5-yl)-2-ethylphenoxy)ethyl)piperidin-1-yl)-N-(5-(2,6-dioxopiperidin-3-ylamino)-2-fluorophenyl)acetamide]",100 to 500,* (0<Y<=25%),–
"CCc1cc(N2C(=S)N(c3ccc(C#N)c(C(F)(F)F)c3)C(=O)C23CCC3)ccc1OCCC1CCN([C@@H](C)C(=O)Nc2cccc(NC3CCC(=O)NC3=O)c2)CC1 (stereo partly drawn) [Cmpd 59, (2S)-2-(4-(2-(4-(7-(4-cyano-3-(trifluoromethyl)phenyl)-8-oxo-6-thioxo-5,7-diazaspiro[3.4]octan-5-yl)-2-ethylphenoxy)ethyl)piperidin-1-yl)-N-(3-(2,6-dioxopiperidin-3-ylamino)phenyl)propanamide]",100 to 500,** (25%<Y<=35%),–
"CCc1cc(N2C(=S)N(c3ccc(C#N)c(C(F)(F)F)c3)C(=O)C23CCC3)ccc1OCCC1CCN([C@H](C)C(=O)Nc2cccc(NC3CCC(=O)NC3=O)c2)CC1 (stereo partly drawn) [Cmpd 60, (2R)-2-(4-(2-(4-(7-(4-cyano-3-(trifluoromethyl)phenyl)-8-oxo-6-thioxo-5,7-diazaspiro[3.4]octan-5-yl)-2-ethylphenoxy)ethyl)piperidin-1-yl)-N-(3-(2,6-dioxopiperidin-3-ylamino)phenyl)propanamide]",100 to 500,** (25%<Y<=35%),–
